According to ChEMBL document CHEMBL5291721, “A preclinical secondary pharmacology resource illuminates target-adverse drug reaction associations of marketed drugs” (Nat Commun, 2023):

Legend:
Bile salt export pump = Bile salt export pump (Homo sapiens, UniProt O95342); assay type: functional
Melanocortin receptor 3 = Melanocortin receptor 3 (Homo sapiens, UniProt P41968)
Adenosine receptor A2a = Adenosine receptor A2a (Homo sapiens, UniProt P29274)
[1] = target: Kappa-type opioid receptor (Homo sapiens, UniProt P41145)
Sequence of Kappa-type opioid receptor (P41145 whole entry): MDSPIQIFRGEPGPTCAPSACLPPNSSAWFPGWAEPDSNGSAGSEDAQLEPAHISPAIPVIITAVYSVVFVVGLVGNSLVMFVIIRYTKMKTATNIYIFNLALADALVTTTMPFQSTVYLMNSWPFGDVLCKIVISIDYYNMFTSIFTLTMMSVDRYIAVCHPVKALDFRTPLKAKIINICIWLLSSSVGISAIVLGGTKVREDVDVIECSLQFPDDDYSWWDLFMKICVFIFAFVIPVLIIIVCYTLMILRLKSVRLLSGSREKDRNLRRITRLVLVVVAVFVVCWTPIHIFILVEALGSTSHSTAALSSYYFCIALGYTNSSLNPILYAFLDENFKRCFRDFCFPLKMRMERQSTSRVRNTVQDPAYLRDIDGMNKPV

[2] = target: Delta-type opioid receptor (Homo sapiens, UniProt P41143)
Sequence of Delta-type opioid receptor (P41143 whole entry): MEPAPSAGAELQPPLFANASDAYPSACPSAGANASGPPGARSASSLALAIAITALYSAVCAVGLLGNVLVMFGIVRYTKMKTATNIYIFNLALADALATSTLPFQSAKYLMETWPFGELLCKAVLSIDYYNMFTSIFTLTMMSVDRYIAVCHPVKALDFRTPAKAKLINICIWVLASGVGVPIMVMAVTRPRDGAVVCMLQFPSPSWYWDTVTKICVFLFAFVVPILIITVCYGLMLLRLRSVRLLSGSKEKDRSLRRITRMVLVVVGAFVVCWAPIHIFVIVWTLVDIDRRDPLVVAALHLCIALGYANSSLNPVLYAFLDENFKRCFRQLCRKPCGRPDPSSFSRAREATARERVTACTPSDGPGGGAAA

Motilin receptor = Motilin receptor (Homo sapiens, UniProt O43193)
Sequence of Motilin receptor (O43193 whole entry): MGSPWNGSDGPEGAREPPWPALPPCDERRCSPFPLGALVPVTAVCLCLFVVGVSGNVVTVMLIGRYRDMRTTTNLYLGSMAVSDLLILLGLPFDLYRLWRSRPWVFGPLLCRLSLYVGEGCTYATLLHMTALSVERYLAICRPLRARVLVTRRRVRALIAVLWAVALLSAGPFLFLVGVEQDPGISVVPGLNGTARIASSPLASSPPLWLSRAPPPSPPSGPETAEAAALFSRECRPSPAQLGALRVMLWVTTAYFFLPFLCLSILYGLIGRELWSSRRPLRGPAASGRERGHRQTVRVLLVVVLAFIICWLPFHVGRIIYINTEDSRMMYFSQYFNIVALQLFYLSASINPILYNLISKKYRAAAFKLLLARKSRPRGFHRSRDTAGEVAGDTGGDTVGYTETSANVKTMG

[3] = target: Sodium-dependent noradrenaline transporter (Homo sapiens, UniProt P23975)
Sequence of Sodium-dependent noradrenaline transporter (P23975 whole entry): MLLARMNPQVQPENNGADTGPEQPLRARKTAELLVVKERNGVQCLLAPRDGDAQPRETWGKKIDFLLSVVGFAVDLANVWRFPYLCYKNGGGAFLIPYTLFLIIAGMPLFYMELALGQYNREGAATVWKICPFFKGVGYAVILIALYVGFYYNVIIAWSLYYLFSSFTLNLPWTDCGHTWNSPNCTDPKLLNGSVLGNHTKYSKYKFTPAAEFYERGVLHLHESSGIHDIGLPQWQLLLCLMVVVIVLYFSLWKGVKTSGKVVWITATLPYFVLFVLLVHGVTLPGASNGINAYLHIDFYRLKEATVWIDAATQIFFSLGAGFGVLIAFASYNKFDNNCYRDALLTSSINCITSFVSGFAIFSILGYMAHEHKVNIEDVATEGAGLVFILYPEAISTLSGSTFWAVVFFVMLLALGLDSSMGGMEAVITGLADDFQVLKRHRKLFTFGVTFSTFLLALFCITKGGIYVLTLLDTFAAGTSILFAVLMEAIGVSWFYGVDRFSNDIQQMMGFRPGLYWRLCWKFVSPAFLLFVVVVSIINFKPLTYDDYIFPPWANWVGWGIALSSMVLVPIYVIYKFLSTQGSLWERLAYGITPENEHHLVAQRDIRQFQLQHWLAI

[4] = target: Beta-1 adrenergic receptor (Homo sapiens, UniProt P08588); assay type: functional
Sequence of Beta-1 adrenergic receptor (P08588 whole entry): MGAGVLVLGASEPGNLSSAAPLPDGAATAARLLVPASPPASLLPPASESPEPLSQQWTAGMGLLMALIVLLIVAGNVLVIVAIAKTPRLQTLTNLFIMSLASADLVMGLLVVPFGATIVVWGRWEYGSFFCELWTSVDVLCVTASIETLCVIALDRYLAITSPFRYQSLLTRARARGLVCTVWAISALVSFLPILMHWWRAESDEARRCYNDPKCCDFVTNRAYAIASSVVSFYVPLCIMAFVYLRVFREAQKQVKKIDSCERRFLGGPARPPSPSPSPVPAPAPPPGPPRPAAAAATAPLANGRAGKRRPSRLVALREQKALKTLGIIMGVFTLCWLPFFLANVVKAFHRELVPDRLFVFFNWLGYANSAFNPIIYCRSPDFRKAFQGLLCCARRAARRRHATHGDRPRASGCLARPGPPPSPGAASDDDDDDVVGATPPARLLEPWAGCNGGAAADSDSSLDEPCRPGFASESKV

[5] = target: T1, Alpha-1A adrenergic receptor (Homo sapiens, UniProt P35348); assay type: functional, cell-based
T1 sequence (P35348 whole entry): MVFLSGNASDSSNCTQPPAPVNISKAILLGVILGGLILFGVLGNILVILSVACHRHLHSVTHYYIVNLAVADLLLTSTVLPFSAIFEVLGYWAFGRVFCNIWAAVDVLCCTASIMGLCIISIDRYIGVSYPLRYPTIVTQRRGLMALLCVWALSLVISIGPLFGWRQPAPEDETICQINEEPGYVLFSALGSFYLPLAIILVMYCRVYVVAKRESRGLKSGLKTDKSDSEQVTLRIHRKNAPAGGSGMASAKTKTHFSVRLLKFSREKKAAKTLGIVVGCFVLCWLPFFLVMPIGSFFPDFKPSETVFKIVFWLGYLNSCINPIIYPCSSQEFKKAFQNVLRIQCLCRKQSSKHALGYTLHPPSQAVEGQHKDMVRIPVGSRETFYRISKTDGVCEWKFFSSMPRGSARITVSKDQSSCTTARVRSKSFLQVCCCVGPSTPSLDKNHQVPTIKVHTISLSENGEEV

[6] = target: T2, Alpha-2C adrenergic receptor (Homo sapiens, UniProt P18825); assay type: functional
T2 sequence (P18825 whole entry): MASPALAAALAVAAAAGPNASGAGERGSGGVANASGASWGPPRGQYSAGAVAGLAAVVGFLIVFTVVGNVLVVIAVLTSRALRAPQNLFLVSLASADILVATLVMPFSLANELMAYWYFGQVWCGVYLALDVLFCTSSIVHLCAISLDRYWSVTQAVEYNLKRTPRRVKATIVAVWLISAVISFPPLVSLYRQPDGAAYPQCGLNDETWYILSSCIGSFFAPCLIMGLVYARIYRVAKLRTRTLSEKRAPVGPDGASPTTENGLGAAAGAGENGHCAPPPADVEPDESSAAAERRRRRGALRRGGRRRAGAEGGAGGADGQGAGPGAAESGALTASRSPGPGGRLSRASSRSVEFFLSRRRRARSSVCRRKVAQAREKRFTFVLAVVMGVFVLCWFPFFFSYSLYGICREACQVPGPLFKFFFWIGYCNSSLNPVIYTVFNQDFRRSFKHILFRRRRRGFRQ

[7] = target: T1, Alpha-1A adrenergic receptor; assay type: functional, cell-based; remark: listed apart in the source
[8] = target: Gamma-aminobutyric acid receptor subunit alpha-1 (Rattus norvegicus, UniProt P62813)
Sequence of Gamma-aminobutyric acid receptor subunit alpha-1 (P62813 whole entry): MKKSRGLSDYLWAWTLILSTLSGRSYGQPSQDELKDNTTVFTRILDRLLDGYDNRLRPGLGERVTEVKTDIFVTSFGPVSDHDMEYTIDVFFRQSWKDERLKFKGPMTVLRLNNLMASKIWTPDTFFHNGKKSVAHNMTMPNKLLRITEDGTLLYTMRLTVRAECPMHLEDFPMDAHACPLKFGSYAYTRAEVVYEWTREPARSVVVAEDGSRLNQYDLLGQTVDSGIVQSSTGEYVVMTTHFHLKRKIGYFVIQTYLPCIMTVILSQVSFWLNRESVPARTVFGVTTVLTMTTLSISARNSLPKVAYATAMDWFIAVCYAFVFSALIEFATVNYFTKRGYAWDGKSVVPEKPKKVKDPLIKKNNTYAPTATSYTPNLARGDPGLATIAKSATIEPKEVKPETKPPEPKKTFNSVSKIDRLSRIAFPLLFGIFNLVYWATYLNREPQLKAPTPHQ

[9] = target: T3, Muscarinic acetylcholine receptor M1 (Homo sapiens, UniProt P11229); assay type: functional, cell-based
T3 sequence (P11229 whole entry): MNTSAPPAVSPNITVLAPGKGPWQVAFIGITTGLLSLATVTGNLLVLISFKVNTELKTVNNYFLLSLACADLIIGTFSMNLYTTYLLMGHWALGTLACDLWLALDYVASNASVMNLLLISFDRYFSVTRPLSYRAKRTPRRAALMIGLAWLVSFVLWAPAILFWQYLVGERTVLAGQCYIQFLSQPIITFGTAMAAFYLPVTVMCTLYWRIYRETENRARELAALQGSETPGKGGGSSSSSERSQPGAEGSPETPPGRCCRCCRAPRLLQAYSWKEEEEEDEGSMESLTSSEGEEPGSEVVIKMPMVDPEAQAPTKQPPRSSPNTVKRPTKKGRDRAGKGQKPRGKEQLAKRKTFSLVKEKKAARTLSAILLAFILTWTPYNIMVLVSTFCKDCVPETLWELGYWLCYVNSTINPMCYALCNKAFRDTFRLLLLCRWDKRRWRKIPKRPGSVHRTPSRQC

[10] = target: T3, Muscarinic acetylcholine receptor M1; assay type: functional, cell-based; remark: listed apart in the source
Progesterone receptor = target: T4, Progesterone receptor (Homo sapiens, UniProt P06401); assay type: functional
T4 sequence (P06401 whole entry): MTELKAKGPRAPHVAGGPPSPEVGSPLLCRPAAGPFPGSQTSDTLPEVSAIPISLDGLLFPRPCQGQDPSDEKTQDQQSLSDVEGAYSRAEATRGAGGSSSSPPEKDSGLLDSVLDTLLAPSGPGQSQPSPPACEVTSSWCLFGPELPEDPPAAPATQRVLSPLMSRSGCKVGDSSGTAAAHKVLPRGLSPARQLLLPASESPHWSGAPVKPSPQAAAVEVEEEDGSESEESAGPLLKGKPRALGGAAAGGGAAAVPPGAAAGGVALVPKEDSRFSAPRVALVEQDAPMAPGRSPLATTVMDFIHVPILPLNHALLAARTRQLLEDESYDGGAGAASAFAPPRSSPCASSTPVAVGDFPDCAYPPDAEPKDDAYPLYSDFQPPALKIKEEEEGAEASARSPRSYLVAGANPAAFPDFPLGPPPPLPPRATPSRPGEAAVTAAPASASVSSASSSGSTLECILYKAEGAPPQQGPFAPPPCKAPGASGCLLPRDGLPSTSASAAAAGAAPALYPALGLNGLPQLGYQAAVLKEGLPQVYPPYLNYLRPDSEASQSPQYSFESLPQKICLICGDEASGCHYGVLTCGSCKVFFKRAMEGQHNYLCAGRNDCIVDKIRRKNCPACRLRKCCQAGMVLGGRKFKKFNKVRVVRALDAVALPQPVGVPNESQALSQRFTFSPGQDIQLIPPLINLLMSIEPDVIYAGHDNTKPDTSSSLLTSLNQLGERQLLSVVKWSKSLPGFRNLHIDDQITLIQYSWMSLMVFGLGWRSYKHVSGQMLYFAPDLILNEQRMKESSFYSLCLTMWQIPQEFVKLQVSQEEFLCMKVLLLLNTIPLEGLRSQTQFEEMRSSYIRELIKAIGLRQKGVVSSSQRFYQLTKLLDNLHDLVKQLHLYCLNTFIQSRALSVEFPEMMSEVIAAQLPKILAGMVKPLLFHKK
Further: assay procedure not described here.

Sequence of Bile salt export pump (O95342 whole entry): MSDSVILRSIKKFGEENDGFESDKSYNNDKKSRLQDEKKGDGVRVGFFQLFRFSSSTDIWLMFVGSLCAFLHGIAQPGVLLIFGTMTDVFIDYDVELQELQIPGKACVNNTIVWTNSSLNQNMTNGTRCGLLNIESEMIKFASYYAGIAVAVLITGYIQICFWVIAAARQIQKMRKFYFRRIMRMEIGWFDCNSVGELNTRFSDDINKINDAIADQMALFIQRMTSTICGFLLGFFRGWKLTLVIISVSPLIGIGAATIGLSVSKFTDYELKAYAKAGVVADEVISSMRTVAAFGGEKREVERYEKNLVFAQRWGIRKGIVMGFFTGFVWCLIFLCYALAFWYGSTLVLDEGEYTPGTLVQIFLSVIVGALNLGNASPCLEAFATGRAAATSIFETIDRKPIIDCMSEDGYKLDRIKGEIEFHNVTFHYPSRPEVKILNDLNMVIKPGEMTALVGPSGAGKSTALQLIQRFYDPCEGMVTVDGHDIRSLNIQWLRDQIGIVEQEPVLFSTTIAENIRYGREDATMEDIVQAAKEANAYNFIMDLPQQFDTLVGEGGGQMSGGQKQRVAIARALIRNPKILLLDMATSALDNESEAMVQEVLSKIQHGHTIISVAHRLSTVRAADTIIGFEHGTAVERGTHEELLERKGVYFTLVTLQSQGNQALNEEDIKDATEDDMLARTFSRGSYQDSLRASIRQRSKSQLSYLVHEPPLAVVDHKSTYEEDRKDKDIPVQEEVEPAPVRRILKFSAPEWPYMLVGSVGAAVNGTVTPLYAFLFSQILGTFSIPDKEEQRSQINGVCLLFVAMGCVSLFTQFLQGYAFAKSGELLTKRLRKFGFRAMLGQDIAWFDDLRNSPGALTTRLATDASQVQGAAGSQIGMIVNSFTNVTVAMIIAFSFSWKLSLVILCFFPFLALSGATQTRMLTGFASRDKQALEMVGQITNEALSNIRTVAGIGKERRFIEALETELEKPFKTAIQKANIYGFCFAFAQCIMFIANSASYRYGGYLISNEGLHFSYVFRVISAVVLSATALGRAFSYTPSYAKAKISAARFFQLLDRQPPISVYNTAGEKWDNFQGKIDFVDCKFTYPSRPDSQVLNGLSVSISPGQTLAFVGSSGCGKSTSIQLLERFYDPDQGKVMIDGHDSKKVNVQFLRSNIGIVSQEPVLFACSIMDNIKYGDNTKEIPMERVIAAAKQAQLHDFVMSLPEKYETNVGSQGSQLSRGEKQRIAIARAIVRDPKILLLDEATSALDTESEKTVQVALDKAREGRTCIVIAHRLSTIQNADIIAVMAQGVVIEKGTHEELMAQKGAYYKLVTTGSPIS
Sequence of Adenosine receptor A2a (P29274 whole entry): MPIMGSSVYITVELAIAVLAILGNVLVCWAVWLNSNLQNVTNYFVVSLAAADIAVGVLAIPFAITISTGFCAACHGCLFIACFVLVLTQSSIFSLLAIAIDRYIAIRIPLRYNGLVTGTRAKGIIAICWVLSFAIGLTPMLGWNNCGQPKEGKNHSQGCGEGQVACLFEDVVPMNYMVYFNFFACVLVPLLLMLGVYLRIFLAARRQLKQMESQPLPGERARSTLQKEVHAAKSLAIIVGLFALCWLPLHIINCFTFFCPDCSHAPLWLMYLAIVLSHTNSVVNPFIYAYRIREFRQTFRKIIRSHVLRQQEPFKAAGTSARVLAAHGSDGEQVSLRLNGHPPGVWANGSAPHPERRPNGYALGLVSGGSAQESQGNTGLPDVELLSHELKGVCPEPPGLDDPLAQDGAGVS
Sequence of Melanocortin receptor 3 (P41968 whole entry): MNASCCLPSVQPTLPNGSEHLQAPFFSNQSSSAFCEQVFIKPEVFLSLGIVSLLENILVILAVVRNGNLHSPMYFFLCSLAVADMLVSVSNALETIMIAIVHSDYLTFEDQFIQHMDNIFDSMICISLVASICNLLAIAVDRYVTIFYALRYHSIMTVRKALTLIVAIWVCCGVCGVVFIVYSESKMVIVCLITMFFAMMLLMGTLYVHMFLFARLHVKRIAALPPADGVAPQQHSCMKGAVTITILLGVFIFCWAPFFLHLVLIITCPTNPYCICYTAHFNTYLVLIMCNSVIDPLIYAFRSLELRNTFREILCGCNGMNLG

| Structure (SMILES) | AC50 (Bile salt export pump) [µM] | AC50 (Melanocortin receptor 3) [µM] | AC50 (Adenosine receptor A2a) [µM] | AC50 [1] [µM] | AC50 [2] [µM] | AC50 (Motilin receptor) [µM] | AC50 [3] [µM] | AC50 [4] [µM] | AC50 [5] [µM] | AC50 [6] [µM] | AC50 [7] [µM] | AC50 [8] [µM] | AC50 [9] [µM] | AC50 [10] [µM] | AC50 (Progesterone receptor) [µM] |
| --- | --- | --- | --- | --- | --- | --- | --- | --- | --- | --- | --- | --- | --- | --- | --- |
| O=C(O)c1ccccc1 [BENZOIC ACID] | 260 |  |  |  |  |  |  |  |  |  |  |  |  |  |  |
| Nc1c(CC(=O)O)cccc1C(=O)c1ccc(Br)cc1 [BROMFENAC] | 88 |  |  |  |  |  |  |  |  |  |  |  |  |  |  |
| CC(C)(O/N=C(\C(=O)N[C@@H]1C(=O)N2C(C(=O)[O-])=C(C[n+]3ccccc3)CS[C@H]12)c1csc(N)n1)C(=O)O [CEFTAZIDIME] | > 300 | > 300 | > 300 | > 30 | > 300 | > 300 | > 300 | > 300 | > 300 | > 300 | > 300 |  |  |  |  |
| CCCNC(=O)NS(=O)(=O)c1ccc(Cl)cc1 [CHLORPROPAMIDE] | > 300 | > 30 | > 30 | > 10 | > 30 | > 10 | > 30 | > 10 | > 30 | > 10 | > 30 | > 10 |  |  |  |
| C[N+](C)(C)CCOP(=O)(O)OP(=O)([O-])OC[C@H]1O[C@@H](n2ccc(N)nc2=O)[C@H](O)[C@@H]1O [CITICOLINE] |  |  |  | > 30 | > 30 |  |  |  | > 30 | > 30 | > 30 | > 30 | > 30 | > 30 |  |
| Clc1ccc(Cn2c(CN3CCCC3)nc3ccccc32)cc1 [CLEMIZOLE] | 29 | > 30 | > 30 |  | > 30 | > 30 | > 30 | > 30 | > 30 | > 30 | 13 |  |  |  |  |
| CCC(=O)O[C@]1(C(=O)CCl)[C@@H](C)C[C@H]2[C@@H]3CCC4=CC(=O)C=C[C@]4(C)[C@@]3(F)[C@@H](O)C[C@@]21C [CLOBETASOL PROPIONATE] | 23 | > 30 | > 30 | > 30 | > 30 | 25 | > 30 | > 30 | > 30 | > 30 | > 30 | > 30 |  |  |  |
| O=C(O)Cc1ccccc1Nc1c(Cl)cccc1Cl [DICLOFENAC] | > 300 | > 30 | > 30 | > 10 | > 30 | > 10 | > 30 | > 10 | > 30 | > 10 | > 30 | > 10 |  |  |  |
| CNC[C@H](O)c1ccc(O)c(O)c1 [EPINEPHRINE] | > 300 | > 30 | > 30 |  | > 30 | > 30 | > 30 |  |  |  |  |  |  |  | > 30 |
| O=C(O)Cc1ccccc1Oc1ccc(Cl)cc1Cl [FENCLOFENAC] |  | > 30 | > 30 | > 10 | > 30 | > 10 | > 10 | > 10 | > 30 | > 10 | > 30 | > 10 | 23.6 | > 30 |  |
| CC(C(=O)O)c1cccc(Oc2ccccc2)c1 (stereo unspecified) [FENOPROFEN] | > 300 |  |  |  |  |  |  |  |  |  |  |  |  |  |  |
| COc1ccccc1OC1(C)OC(=O)c2ccccc2O1 (stereo unspecified) [GUAIMESAL] |  | > 30 | > 30 |  |  | > 30 | > 30 | > 30 |  |  |  |  | > 30 | > 30 | > 30 |
| CC[C@H](C)C(=O)O[C@H]1C[C@@H](C)C=C2C=C[C@H](C)[C@H](CC[C@@H]3C[C@@H](O)CC(=O)O3)[C@H]21 [LOVASTATIN] | 27 | > 30 | > 30 | > 10 | > 30 | > 10 | > 10 | > 10 | > 30 | > 10 |  | > 10 |  |  |  |
| CC[C@@H](CO)NC(=O)[C@@H]1C=C2c3cccc4c3c(cn4C)C[C@H]2N(C)C1 [METHYSERGIDE] | 180 | > 30 | > 30 | > 10 | > 30 | > 10 | > 30 |  | 0.88 | 3.5 |  | > 10 |  |  |  |
| CNC(=C[N+](=O)[O-])NCCSCc1csc(CN(C)C)n1 [NIZATIDINE] | > 300 | > 10 | > 10 | > 10 | > 30 | > 10 | > 10 | > 10 |  | > 10 |  | > 10 |  |  | > 10 |
| CC(CN1c2ccccc2Sc2ccccc21)N(C)C (stereo unspecified) [PROMETHAZINE] | > 300 | 31.9 | > 30 |  | > 30 | > 10 | 0.81 | > 10 | > 30 | 3 | 1.7 | > 10 |  |  |  |
| CCCc1cc(=O)[nH]c(=S)[nH]1 [PROPYLTHIOURACIL] | > 300 | > 10 | > 10 | > 10 | > 30 | > 10 | > 10 | > 10 |  | > 10 |  | > 10 |  |  | > 10 |
| C[N+](C)(C)CCOC(=O)CCC(=O)OCC[N+](C)(C)C [SUXAMETHONIUM] | > 300 |  |  |  |  |  |  |  |  |  |  |  |  |  |  |
| Cc1ccsc1C(=CCCN1CCC[C@@H](C(=O)O)C1)c1sccc1C [TIAGABINE] |  |  |  |  |  |  |  |  |  |  |  |  | > 30 | > 30 |  |
| Cc1ccc(C(=O)c2ccc(CC(=O)O)n2C)cc1 [TOLMETIN] | > 300 |  |  |  |  |  |  |  |  |  |  |  |  |  |  |
| CC[C@]12CCCN3CCc4c(n(c5ccccc45)[C@@](O)(C(=O)OC)C1)[C@@H]32 [VINCAMINE] |  |  |  |  |  |  |  |  |  |  |  |  | > 30 | > 30 |  |
